Measured values reported in patent publication US20250073215A1 (priority 2023, published 2025).

What was measured:
[1] = system: human bronchial epithelial cells (BEAS-2B cells); settings: in vitro; cited from earlier work
[2] = system: BEAS-2B cells; settings: cited from earlier work
[3] = system: cholinergic receptor; settings: when interacting with the cholinergic receptor ligand; cited from earlier work
[4] = cited from earlier work

Compound	satisfaction of nicotine craving compared with previously used nicotine products (100 individuals, twice a day for 60 days, participants' opinion)	addictiveness (conclusion of the study)	sensitivity of BEAS-2B cells (cytotoxicity) compared with nicotine [1]	effect on CRP expression compared with nicotine ([2]; BEAS-2B cells)	effect on tumour development and metastasis compared with nicotine ([2]; NF-κB p65, EGFR, MET by immunoblotting and real-time PCR)	cancer-related proteins (CRPs) with differential expression compared with control group ([2]; transcriptome sequencing, BEAS-2B cells)	antinociceptive effects [3]	lethal dose for humans [4]
Cc1ccc([C@@H]2CCCN2C)cn1 [(S)-2-Methyl-5-(1-methyl-2-pyrrolidinyl)pyridine]	faster	not addictive	more sensitive	greater negative effect on CRP expression than nicotine	greater negative effect on tumour development and metastasis than nicotine	1208	displays antinociceptive effects	
CN1CCC[C@H]1c1cccnc1 [Nicotine, 3-[(2S)-1-methyl-2-pyrrolidinyl]pyridine]								50 to 100 mg
